Patent publication US5948817A, “Polycyclic ethyl alkylamide melatonergic agents” (Bristol-Myers Squibb Company, priority 1998, dated 1999)

Target: T1, melatonin ML1A receptor (Homo sapiens, UniProt P48039)
T1 construct: expressed in transfected cells; membrane homogenates
Assay: Melatonergic binding (2-[125I]-iodomelatonin, membrane homogenates of NIH-3T3 cells expressing ML1A receptor)
Settings: 37° C. for 1 hour, NIH-3T3 cell membranes, read-out: IC50, binding affinity for melatonin receptors
From the text: The compounds of the invention are melatonergic agents. […] Further, the compounds are agonists as determined by their ability, like melatonin, to block the forskolin-stimulated accumulation of cAMP in certain cells. Due to these properties, the compounds and compositions of the invention should be useful as sedatives, chronobiotic agents, anxiolytics, antipsychotics, analgesics, and the like. Specifically, these agents should find use in the treatment of stress, sleep disorders, seasonal depression, appetite regulation, shifts in circadian cycles, melancholia, jet-lag, glaucoma, reproductive disorders, cancer, premenstrual syndrome, immune disorders, inflammatory diseases, neuroendocrine disorders and related conditions.
The melatonergic binding properties of compounds of the invention were measured using the following procedure.
(a) TME=50 mM Tris buffer containing 12.5 mM MgCl2, and 2 mM EDTA, pH 7.4 at 37° C. with concentrated HCl.
(b) Wash buffer: 20 mM Tris base containing 2 mM MgCl2. pH 7.4 at room temperature.
(c) 10^-4 M melatonin (10^-5 M final concentration).
(d) 2-[^125 I]-iodomelatonin, […] final concentration.
The melatonin ML1A receptor cDNA was subcloned into pcDNA3 and introduced into NIH-3T3 cells using Lipofectamine. […]

T1 sequence (P48039 whole entry): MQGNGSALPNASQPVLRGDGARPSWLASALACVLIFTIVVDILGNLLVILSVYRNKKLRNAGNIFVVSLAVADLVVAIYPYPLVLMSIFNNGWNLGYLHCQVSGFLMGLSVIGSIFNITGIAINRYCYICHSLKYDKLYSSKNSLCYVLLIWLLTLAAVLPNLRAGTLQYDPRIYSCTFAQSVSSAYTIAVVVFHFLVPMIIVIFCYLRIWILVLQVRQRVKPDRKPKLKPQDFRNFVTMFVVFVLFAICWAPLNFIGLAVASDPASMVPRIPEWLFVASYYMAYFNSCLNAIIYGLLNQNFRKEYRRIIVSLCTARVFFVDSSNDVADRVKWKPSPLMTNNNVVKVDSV

Structure (SMILES) | IC50 [nM]
CCC(=O)NCCC1c2ccccc2-c2ccc3c(c21)CCO3 (centres unmarked) [Example 1, N-[2-(2,10-dihydro-1H-fluoreno[2,1-b]furan-10-yl)ethyl]propanamide] | < 25
CCC(=O)NCCC1c2cc(OC)ccc2-c2ccc3c(c21)OCO3 (centres unmarked) [Example 2, N-[2-(8-Methoxy-10H-fluoreno[1,2-d]-1,3-dioxol-10-yl)ethyl]propanamide] | < 25
